Measurements from patent US12084411B2, “Hinokitiol analogues, methods of preparing and pharmaceutical compositions thereof” (The Board of Trustees of the University of Illinois, priority 2018, dated 2024).
“Also recorded” adds a separate entry of the source.

Key:
[1] = Iron efflux from liposomes using ferrozine; type: biochemical; settings: for transport of ferrous and ferric iron across model liposomal membranes: 5 μM small molecule; for iron (III) efflux from POPC liposomes: 30 mM FeCl3 inside
Experimental: Iron (III) efflux from POPC liposomes was determined similar to previously reported (64). POPC liposomes were prepared as similarly reported (65) using 30 mM FeCl3, 62.5 mM citrate at pH=7.0 in 25 mM Mes/Tris buffer. External iron was removed by size exclusion chromatography using Sephadex G-50 and eluting with external buffer. External buffer consisted of 62.5 mM ascorbate at pH=7.0 in 25 mM Mes/Tris buffer. The liposomes were diluted to 1 mM phosphorus in this buffer. Ferrozine (Sigma 160601) was added (100X stock in external buffer) to a final concentration of 500 μM. Liposomal suspension was then transferred to a 96-well plate, and either DMSO or 5 μM hinokitiol, C2deOHino, deferiprone, or PIH (40X stock solution in DMSO) were added to initiate the experiment. The OD562 was determined every minute over the course of 2 hours using a plate-reader with continuous shaking at 30° C. to detect the relative amounts of external ferrozine-iron chelate at the indicated times. After 2 hours, liposomes were lysed with Triton-X to give 100% iron efflux.
Iron (II) efflux was performed as described above, however, the internal buffer alternatively consisted of 30 mM FeSO4, 62.5 mM ascorbate at pH=7.0 in 25 mM Mes/Tris buffer and Triton-X lysis was performed after 1 hour.
The rates of iron efflux with increasing concentrations of intraliposomal iron and/or hinokitiol were determined as described above using the indicated concentration of iron and hinokitiol. For the varying concentrations of iron, hinokitiol (10 μM) was added to the POPC liposomes, and the change in absorbance at 562 nm was determined over 2 hours. For the varying concentrations of hinokitiol, 30 mM intraliposomal iron was used as described above. The concentration of iron outside of liposomes was determined using the extinction coefficient for ferrozine-iron (27,900 M^−1 cm^−1) (66). This was used to determine the amount of iron released from liposomes at the indicated times using the total volume for each experiment. Rates of iron efflux were determined after one hour of hinokitiol treatment.

DMT1-deficient MEL cells = assay: Differentiation and hemoglobinization of DMT1-deficient MEL cells; type: cell-based, mouse; settings: 1 μM, three days
Experimental: Differentiation of MEL Cells with DMSO (FIG. 3D) To perform differentiation experiments with MEL cells (39), the indicated MEL cells were diluted to 1×10^5 cells/mL in MEL Complete media containing 10 μM iron (III) citrate and 2% DMSO in the absence or presence of 1 μM hinokitiol or C2deOHino (added from 1000X stock in DMSO) in 12-well plates. Cells were then incubated at 37° C. for 72 hours unless otherwise noted.
Hemoglobinized MEL cells were quantified three days after DMSO induction through o-dianisidine staining similar to previously reported (74). Cells were centrifuged three days after induction and rinsed with PBS. The cells were then suspended in a solution containing 7.5 mM o-dianisidine, 900 mM H2O2, and 150 mM acetic acid in water at ˜1×10^6 cells/mL. Cells were then imaged on an AXIO Zoom V16 microscope to obtain color images. The number of stained cells were then quantified via ImageJ analysis and compared to the number of total cells in each image. To determine that hinokitiol requires DMSO induction for hemoglobinization, 2% DMSO was not added at the beginning of the experiment before a 72-hour incubation and o-dianisidine staining.
MEL cells were induced for differentiation as described above and incubated at 37° C. for 70 hours before addition of a saturated iron-transferrin (^55Fe2Tf) solution (40 nM final concentration from a 10 μM ^55Fe2Tf stock). The cells were incubated for an additional two hours. After completion, the cells were counted with a hemocytometer, the media was removed after centrifugation, the cells were rinsed with PBS (×3), and the cell suspension was diluted in scintillation cocktail and radioactivity was determined. […] The cells were incubated for an additional eight hours. After completion, the cells were counted with a hemocytometer, the media was removed after centrifugation, and the cells were rinsed with PBS (×3). The cells were then lysed with RIPA buffer, diluted with water, and heme was extracted using a 3:1 ethyl acetate:acetic acid solution. An aliquot of the organic extract was diluted in scintillation cocktail and radioactivity was determined. Radioactive levels were normalized per cell (counted by hemocytometer) relative to wild type (DS19) levels.
MEL cells were induced for differentiation as described above and incubated at 37° C. for 72 hours. After completion, the cells were counted with a hemocytometer, the media was removed after centrifugation, and cells were rinsed with PBS (×2). The cells were then lysed through repeated freeze/thaw cycles with water, and hemoglobin levels per 10^6 cells were determined as previously described (77) by determining the OD415 after centrifugation. Globin levels by western blot were determined after differentiation as described above. After incubation for 72 hours, cells were lysed and globin levels were determined by western blot as described above.

fet3Δftr1Δ yeast [2] = assay: Fe3+ uptake assay in yeast; type: cell-based, Saccharomyces cerevisiae
Experimental: Iron (III) uptake into wild type and fet3Δftr1Δ yeast was adapted from Kosman and coworkers (56). Overnight yeast cultures were repeatedly centrifuged and rinsed with water. The cell pellet was resuspended in MilliQ water, and diluted in SD media without FeCl3. The cells were incubated at 30° C. for 3 hours, centrifuged and rinsed with water twice. The cells were then suspended to 3×10^7 cells/mL in SD media containing 50 mM sodium citrate and 2% glucose. Hinokitiol or C2deOHino (from 40X stocks in DMSO) was added to a final concentration of 100 μM before ^55FeCl3 ([…]) was added to the yeast suspensions. The suspension was continuously homogenized before aliquots were taken and diluted with 10 mL of room temperature water. Cells were then collected via vacuum filtration through a 0.45 μm nitrocellulose filter (Millipore HAWP), and rinsed with room temperature water (×5 of 100 mL). The filters were then transferred to a scintillation vial containing 3 mL of scintillation cocktail for measuring radioactivity using a liquid scintillation counter.

fet3Δftr1Δ yeast [3] = assay: Growth rescue of fet3Δftr1Δ yeast with small molecules in liquid media; type: cell-based, Saccharomyces cerevisiae; settings: liquid low iron SD media, 10 μM FeCl3
Experimental: Growth rescue in yeast was performed similar to previously reported (20) using 10 μM hinokitiol in low iron SD liquid media containing 10 μM FeCl3 in a 96-well plate unless otherwise noted. Wild type and fet3Δftr1Δ controls treated with vehicle (DMSO) were performed under identical conditions using the same low iron SD media containing 10 μM FeCl3 in the absence of hinokitiol. Yeast were grown overnight in YPD media and diluted at an OD600 of 0.1 in SD media, diluted 10-fold, and incubated at 30° C. with continuous shaking (200 rpm). The OD600 was obtained 24-48 hours after inoculation unless otherwise noted.
Small molecule dose-response (FIG. 1F) with hinokitiol and C2-deoxy hinokitiol (C2deOHino, see synthesis below) was determined by addition of the small molecule (40X stock solution in DMSO) to give the indicated final concentrations.

Row | Structure (SMILES) | transport of ferrous and ferric iron across model liposomal membranes [1] | iron (III) efflux from POPC liposomes [1] | 55Fe uptake (DMT1-deficient MEL cells) | 55Fe-heme incorporation (DMT1-deficient MEL cells) | hemoglobinization (DMT1-deficient MEL cells) | 55Fe uptake into fet3Δftr1Δ yeast (fet3Δftr1Δ yeast [2]) | restoration of fet3Δftr1Δ yeast growth, small molecule dose-response (fet3Δftr1Δ yeast [3]) | restoration of fet3Δftr1Δ yeast growth, small molecule dose-response (fet3Δftr1Δ yeast [3]; listed as Hinokitiol)
1 | CC(C)c1cccc(=O)cc1 [C2deOHino, C2-deoxy hinokitiol] | minimal transport | no efflux up to 100 μM | no effect | no effect | no effect | no uptake up to 100 μM | no biological activity; also recorded: does not | 
2 | CC(C)c1cccc(=O)c(O)c1 [hinokitiol] | autonomously transports both ferrous and ferric iron | dose- and temperature-dependently promoted iron (III) efflux | restored | restored | restored | dose-dependent increase in ^55Fe uptake from 5 to 100 μM | dose-dependently restores yeast growth | rescues growth of iron transporter-deficient yeast (Fet3Ftr1) at low concentrations
